For this test, the target named is Acetylcholinesterase (Homo sapiens) (UniProt P22303). The experiment in a line: Inhibition of acetylcholinesterase at 100 uM by chemiluminescence method.

Structures are written as SMILES.

Acetylcholinesterase (Homo sapiens), sequence (P22303 whole entry): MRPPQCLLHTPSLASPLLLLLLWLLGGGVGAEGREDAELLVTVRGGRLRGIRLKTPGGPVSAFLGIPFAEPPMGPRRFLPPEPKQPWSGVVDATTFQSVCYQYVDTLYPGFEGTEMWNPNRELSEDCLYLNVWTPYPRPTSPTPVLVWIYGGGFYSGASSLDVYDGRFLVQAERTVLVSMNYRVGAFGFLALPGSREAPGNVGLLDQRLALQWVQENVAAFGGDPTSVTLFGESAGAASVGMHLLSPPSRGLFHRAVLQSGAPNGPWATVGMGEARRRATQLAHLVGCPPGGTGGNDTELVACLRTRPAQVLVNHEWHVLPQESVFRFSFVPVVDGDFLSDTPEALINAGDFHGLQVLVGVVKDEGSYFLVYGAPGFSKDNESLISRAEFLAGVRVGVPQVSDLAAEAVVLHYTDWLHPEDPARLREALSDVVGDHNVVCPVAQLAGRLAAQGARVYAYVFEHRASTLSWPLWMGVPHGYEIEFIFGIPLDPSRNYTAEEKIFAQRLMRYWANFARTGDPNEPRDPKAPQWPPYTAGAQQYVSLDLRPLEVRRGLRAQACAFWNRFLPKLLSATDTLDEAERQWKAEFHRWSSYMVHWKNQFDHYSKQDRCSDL

As for `C=C1CC[C@@H](OC)C(O)=C1C(=O)C1(C)NC(=O)CC[C@H](N)C(=O)O1` (some centres not stated), the inhibition is 7%.
With `CO[C@@H]1CC[C@](C)(O)C(C(=O)C2(C)NC(=O)CC[C@H](N)C(=O)O2)=C1O` (some centres not stated), the inhibition stood at 20%.

In general, inhibition refers to the relative decrease from the control value, in per cent.

The values above are taken from ChEMBL document CHEMBL1156660, “Alkaloids from the mushroom Pseudobaeospora pyrifera, pyriferines A-C” (J Nat Prod, 2008).
